Test results as given in patent US20130028865A1, “Combination of a Macrocyclic Inhibitor of HCV, A Non-Nucleoside and a Nucleoside” (MEDIVIR AB, priority 2010, published 2013).
Read-outs that look alike come from different tables or passages of the source.

Experiments:
[1] = test system: HCV RNA replication (HCV type 1b replicon in Huh-7 luc/neo cells); assay: HCV replicon assay (Huh-Luc, luciferase read-out); type: cell-based; settings: Hepatitis C virus, Huh-7, 72 h, HCV replicon test, three days incubation
Text: The EC50 ratio between the active ingredients of formula I, II and III in the combinations of the invention may vary. As used herein the term “EC50 ratio” refers to the ratio of the EC50 value of the compound of formula I to the EC50 value of the compound of formula II, and to the EC50 value of the compound of formula III, said EC50 values being obtained in the HCV replicon test. The latter in particular is the test method described hereinafter.
The in vitro antiviral activity against HCV of the compound of formula I or of formula II or of formula III can be tested in a cellular HCV replicon system based on Lohmann et al. (1999) Science 285:110-113, with the further modifications described by Krieger et al. (2001) Journal of Virology 75: 4614-4624 (incorporated herein by reference), which is further exemplified in the examples section. […]
The replicon cells were plated in 384 well plates in the presence of the test and control compounds which were added in various concentrations. Following an incubation of three days, HCV replication was measured by assaying luciferase activity (using standard luciferase assay substrates and reagents, and a Perkin Elmer ViewLux™ ultraHTS microplate imager). […] The inhibitory activity of the compound was monitored on the Huh-Luc cells, enabling a dose-response curve for each test compound. […]

[2] = test system: HCV RNA replication (HCV type 1b replicon in Huh-7 luc/neo cells); settings: HCV replicon test; reported in WO2010/003658; cited from earlier work

Compound | EC50 [1] | EC50 [2]
COc1ccc2c(O[C@@H]3C[C@H]4C(=O)N[C@]5(C(=O)NS(=O)(=O)C6CC6)C[C@H]5C=CCCCCN(C)C(=O)[C@@H]4C3)cc(-c3nc(C(C)C)cs3)nc2c1C (stereo in doubt) [compound I, (1R,4R,6S,15R,17R)-cis-N-[17-[2-(4-isopropylthiazole-2-yl)-7-methoxy-8-methyl-quinolin-4-yloxy]-13-methyl-2,14-dioxo-3,13-diazatricyclo[13.3.0.0^4,6]octadec-7-ene-4-carbonyl](cyclopropyl)sulfonamide] | 8 nM | –
C[C@@H]1[C@H](n2ccc(N)nc2=O)O[C@@](CO)(N=[N+]=[N-])[C@H]1O [compound II, 4-amino-1-((2R,3S,4S,5R)-5-azido-4-hydroxy-5-hydroxymethyl-3-methyl-tetrahydrofuran-2-yl)-1H-pyrimidin-2-one] | 5000 nM | –
COc1ccc2c(c1)C=C1Cn3c-2c(C2CCCCC2)c2ccc(cc23)C(=O)NS(=O)(=O)N(C)CCOCCN(C)C1=O [compound III] | – | 70 nM
